Experimental data as given in patent publication US8653122B2, “Oromucosal formulation and process for preparing the same” (Santhera Pharmaceuticals (Switzerland) Ltd., priority 2002, dated 2014).

How the values were obtained:
[1] = Plasma levels of fipamezole in healthy male volunteers after a single 30 mg dose (oral, oromucosal tablet, oromucosal spray); format: in vivo, human; settings: for AUC(0-inf) / Cmax / Tmax: human, plasma; for AUC(0-inf) / Cmax / t1/2el: mean
Method: Plasma levels of fipamezole were studied in healthy male volunteers after oral administration of the drug as a solution. Blood samples for pharmcokinetic evaluation were collected for 24 hours after the drug administration. The concentration of fipamezole in plasma was measured with HPLC-MS/MS, and the pharmacokinetic parameters were calculated. The pharmacokinetics of fipamezole was evaluated with TopFit 2.0 pharmacokinetic program. The Cmax and tmax values were read from the concentration vs. time curves, and the apparent elimination phase half-lives from the terminal part of the semilogarithmic concentration vs. time curve (see FIG. 1). AUC values were calculated both to infinity and up to the last collection time with quantifiable fipamezole concentration. Mean plasma concentration time plot following single dose administration of 30 mg fipamezole via an oral, oromucosal spray and an oromucosal tablet on a semilogarithmic scale is shown in FIG. 1.

[2] = system: dogs; test: 30-day dog toxicology study using oral dosing (cardiac safety); format: in vivo; settings: for maximum systemic fipamezole concentration: oral
Method: (§1) Cardiac safety was studied in dogs in a 30-day dog toxicology study using oral dosing and dog toxicology studies using buccal dosing.
In the 30-day dog toxicology study fipamezole was administered orally at doses of 1, 5, 10 and 15 mg/kg/day for 30 days, resulting in maximum systemic fipamezole concentrations of about 200, 1000, 2000 and 3300 ng/ml, respectively.

[3] = system: dogs; test: Dog toxicology study, buccal spray, sequential dosing regimen (blood pressure, heart rate, ECG); format: in vivo
Method: as §1
In another toxicology study four male dogs were given fipamezole in buccal spray doses of 1, 5 and 10 mg/kg in a sequential dosing regimen with 5 to 15 days between doses. Blood pressure (systolic, diastolic and mean), heart rate and ECGs were monitored before and up to 12 hours after dosing.

[4] = system: dogs; test: Dog toxicology study using buccal delivery for up to 4 weeks; format: in vivo; settings: for maximum systemic concentration of fipamezole: buccal, first day
Method: as §1
Maximum systemic concentrations of fipamezole after dosing on the first day of this study were about 800, 2000 and 3300 ng/ml.

[5] = other: oromucosal spray, oromucosal spray
[6] = other: oromucosal tablet, oromucosal tablet
[7] = buccal spray 5 and 10 mg/kg, 30 minutes after dosing

CCC1(c2c[nH]cn2)Cc2ccc(F)cc2C1.Cl (stereo not drawn) [fipamezole, 4-(2-ethyl-5-fluoroindan-2-yl)-1H-imidazole hydrochloride]
AUC(0-inf) ([1]; oral (solution)): 7.65 ng·h/mL | Cmax ([1]; oral (solution)): 1.59 ng/mL | Tmax ([1]; oral (solution), median): 1 h | AUC(0-inf) [1, 5]: 157 ng·h/mL | Cmax [1, 5]: 49.2 ng/mL | Tmax ([1]; other: oromucosal spray, oromucosal spray, median): 0.7 h | Tmax [1, 6]: 0.85 h | AUC(0-inf) [1, 6]: 116 ng·h/mL | Cmax [1, 6]: 31.7 ng/mL | t1/2el ([1]; oral (solution)): 3.10 h | t1/2el ([1]; oromucosal spray): 2.10 h | t1/2el ([1]; oromucosal tablet): 3.10 h | systemic concentration of fipamezole at which QT prolongation was observed ([2]; high oral doses, 30-day study): about 2000 ng/ml | maximum systemic fipamezole concentration ([2]; 1 mg/kg/day for 30 days): about 200 ng/ml | maximum systemic fipamezole concentration ([2]; 5 mg/kg/day for 30 days): ~1000 ng/mL | maximum systemic fipamezole concentration ([2]; 10 mg/kg/day for 30 days): about 2000 ng/ml | maximum systemic fipamezole concentration ([2]; 15 mg/kg/day for 30 days): ~3300 ng/mL | ECG changes (P wave amplitude, P wave duration, P-Q interval, QRS interval or Q-T interval) ([3]; buccal spray 1, 5 and 10 mg/kg, each dose level, up to 12 hours after dosing): No ECG changes | blood pressure (absolute values) [3, 7]: significant transient increases | heart rate (absolute values) [3, 7]: significant transient increases | changes in ECG ([4]; buccal delivery 1, 5 and 10 mg/kg/day for up to 4 weeks): no apparent changes in ECG | maximum systemic concentration of fipamezole ([4]; 1 mg/kg/day): about 800 ng/ml | maximum systemic concentration of fipamezole ([4]; 5 mg/kg/day): ~2000 ng/mL | maximum systemic concentration of fipamezole ([4]; 10 mg/kg/day): ~3300 ng/mL
